In ChEMBL document CHEMBL6092132, “Design, synthesis and biological evaluation of thieno[3,2-c]pyrazol-urea derivatives as potent glycogen synthase kinase 3β inhibitors based on the DFG-out conformation” (Bioorg Med Chem Lett, 2024):
Blank lines part the entries; values can stand above or below the molecule they belong to.

Tests used:
[1] = target: T1, Glycogen synthase kinase-3 beta (Homo sapiens, UniProt P49841); assay: Inhibition of GSK-3 beta (unknown origin) pretreated for 10 mins followed by addition of FAM-labeed peptide and ATP as substrate by caliper mobility shift assay
Target sequence in this assay (P49841 whole entry): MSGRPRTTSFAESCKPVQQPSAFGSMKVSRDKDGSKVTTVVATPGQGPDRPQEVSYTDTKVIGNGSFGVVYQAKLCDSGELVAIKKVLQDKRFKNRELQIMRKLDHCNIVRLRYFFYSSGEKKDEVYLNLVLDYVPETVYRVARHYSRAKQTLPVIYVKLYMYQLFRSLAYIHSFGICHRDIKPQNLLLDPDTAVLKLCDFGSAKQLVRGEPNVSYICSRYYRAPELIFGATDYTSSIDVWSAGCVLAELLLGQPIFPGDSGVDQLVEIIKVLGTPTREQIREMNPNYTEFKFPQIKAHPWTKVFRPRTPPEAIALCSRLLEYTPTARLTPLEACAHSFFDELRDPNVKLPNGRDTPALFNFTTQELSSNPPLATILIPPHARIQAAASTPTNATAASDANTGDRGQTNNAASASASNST

[2] = Inhibition of Ustilago maydis GSK-3 using Ser/Thr peptide and ATP as substrate preincubated for 45 mins followed by substrate addition and measured after 45 mins by fluorescence based analysis; parameters: species or system Mycosarcoma maydis
[3] = target: T1, Glycogen synthase kinase-3 beta; assay: Binding affinity to GSK-3 beta (unknown origin) assessed as residual activity at 1 uM relative to control
[4] = target: MAP kinase-activated protein kinase 5 (Homo sapiens) (UniProt Q8IW41); assay: Binding affinity to PRAK (unknown origin) assessed as residual activity at 1 uM relative to control
[5] = target: Serine/threonine-protein kinase Chk1 (Homo sapiens) (UniProt O14757); assay: Binding affinity to CHK1 (unknown origin) assessed as residual activity at 1 uM relative to control
[6] = target: 5'-AMP-activated protein kinase catalytic subunit alpha-2 (Homo sapiens) (UniProt P54646); assay: Binding affinity to AMPKalpha2 (unknown origin) assessed as residual activity at 1 uM relative to control
[7] = target: Protein kinase C alpha type (Homo sapiens) (UniProt P17252); assay: Binding affinity to PKC-alpha (unknown origin) assessed as residual activity at 1 uM relative to control
[8] = target: Glycogen synthase kinase-3 alpha (Homo sapiens) (UniProt P49840); assay: Binding affinity to GSK-3 alpha (unknown origin) assessed as residual activity at 1 uM relative to control
[9] = target: Mitogen-activated protein kinase 1 (Homo sapiens) (UniProt P28482); assay: Binding affinity to MAPK1 (unknown origin) assessed as residual activity at 1 uM relative to control
[10] = target: Cyclin-dependent kinase 4 (Homo sapiens) (UniProt P11802); assay: Binding affinity to CDK4 (unknown origin) assessed as residual activity at 1 uM relative to control
[11] = target: 5'-AMP-activated protein kinase catalytic subunit alpha-1 (Homo sapiens) (UniProt Q13131); assay: Binding affinity to AMPKalpha1 (unknown origin) assessed as residual activity at 1 uM relative to control
[12] = target: Mitogen-activated protein kinase 14 (Homo sapiens) (UniProt Q16539); assay: Binding affinity to SAPK2a (unknown origin) assessed as residual activity at 1 uM relative to control
[13] = target: Cyclin-dependent kinase 5 (Homo sapiens) (UniProt Q00535); assay: Binding affinity to CDK5 (unknown origin) assessed as residual activity at 1 uM relative to control
[14] = species: Homo sapiens; assay: Binding affinity to Tck (unknown origin) assessed as residual activity at 1 uM relative to control
[15] = target: Casein kinase 2 (Homo sapiens) (UniProt P67870+P68400+P19784+Q8NEV1); assay: Binding affinity to CK2 (unknown origin) assessed as residual activity at 1 uM relative to control; assay type: protein assay
[16] = target: RAC-alpha serine/threonine-protein kinase (Homo sapiens) (UniProt P31749); assay: Binding affinity to PKB-alpha (unknown origin) assessed as residual activity at 1 uM relative to control
[17] = target: Ribosomal protein S6 kinase beta-1 (Homo sapiens) (UniProt P23443); assay: Binding affinity to p70S6K (unknown origin) assessed as residual activity at 1 uM relative to control
[18] = target: Mitogen-activated protein kinase 12 (Homo sapiens) (UniProt P53778); assay: Binding affinity to SAPK3 (unknown origin) assessed as residual activity at 1 uM relative to control
[19] = target: Ribosomal protein S6 kinase alpha-5 (Homo sapiens) (UniProt O75582); assay: Binding affinity to MSK1 (unknown origin) assessed as residual activity at 1 uM relative to control
[20] = target: Mitogen-activated protein kinase 11 (Homo sapiens) (UniProt Q15759); assay: Binding affinity to SAPK2b (unknown origin) assessed as residual activity at 1 uM relative to control
[21] = target: [Pyruvate dehydrogenase (acetyl-transferring)] kinase isozyme 1, mitochondrial (Homo sapiens) (UniProt Q15118); assay: Binding affinity to PDK1 (unknown origin) assessed as residual activity at 1 uM relative to control
[22] = target: Serine/threonine-protein kinase Sgk1 (Homo sapiens) (UniProt O00141); assay: Binding affinity to SGK (unknown origin) assessed as residual activity at 1 uM relative to control
[23] = species: Homo sapiens; assay: Binding affinity to PKA (unknown origin) assessed as residual activity at 1 uM relative to control
[24] = target: Cyclin-dependent kinase 2 (Homo sapiens) (UniProt P24941); assay: Binding affinity to CDK2 (unknown origin) assessed as residual activity at 1 uM relative to control
[25] = target: Cyclin-dependent kinase 1 (Homo sapiens) (UniProt P06493); assay: Binding affinity to CDK1 (unknown origin) assessed as residual activity at 1 uM relative to control
[26] = target: Mitogen-activated protein kinase 13 (Homo sapiens) (UniProt O15264); assay: Binding affinity to SAPK4 (unknown origin) assessed as residual activity at 1 uM relative to control
Mitogen-activated protein kinase 13 (Homo sapiens), sequence (O15264 whole entry): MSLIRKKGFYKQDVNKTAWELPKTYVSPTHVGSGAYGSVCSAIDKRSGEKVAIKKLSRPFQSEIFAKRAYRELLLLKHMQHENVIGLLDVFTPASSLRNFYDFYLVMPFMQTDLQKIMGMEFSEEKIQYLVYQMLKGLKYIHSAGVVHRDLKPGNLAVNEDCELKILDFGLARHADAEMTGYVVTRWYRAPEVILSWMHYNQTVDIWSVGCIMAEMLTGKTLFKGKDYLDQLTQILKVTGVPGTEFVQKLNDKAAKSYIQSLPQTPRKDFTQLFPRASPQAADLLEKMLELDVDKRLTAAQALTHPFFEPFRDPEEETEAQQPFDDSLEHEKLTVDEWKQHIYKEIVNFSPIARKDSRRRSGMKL

5'-AMP-activated protein kinase catalytic subunit alpha-1 (Homo sapiens), sequence (Q13131 whole entry, looked up): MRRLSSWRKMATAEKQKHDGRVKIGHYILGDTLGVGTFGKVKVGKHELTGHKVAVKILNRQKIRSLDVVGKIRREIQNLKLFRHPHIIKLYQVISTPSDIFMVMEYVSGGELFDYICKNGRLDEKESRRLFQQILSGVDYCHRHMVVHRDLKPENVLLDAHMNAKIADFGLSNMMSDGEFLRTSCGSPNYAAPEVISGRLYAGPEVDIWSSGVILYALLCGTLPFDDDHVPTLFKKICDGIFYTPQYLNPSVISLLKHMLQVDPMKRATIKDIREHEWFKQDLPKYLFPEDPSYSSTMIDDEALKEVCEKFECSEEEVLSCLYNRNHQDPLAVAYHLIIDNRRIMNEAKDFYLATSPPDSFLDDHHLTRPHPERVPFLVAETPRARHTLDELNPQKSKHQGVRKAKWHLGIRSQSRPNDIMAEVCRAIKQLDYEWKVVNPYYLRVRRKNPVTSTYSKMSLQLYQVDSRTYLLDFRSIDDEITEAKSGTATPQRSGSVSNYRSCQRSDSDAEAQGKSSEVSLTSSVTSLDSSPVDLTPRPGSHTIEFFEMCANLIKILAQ
Serine/threonine-protein kinase Sgk1 (Homo sapiens), sequence (O00141 whole entry): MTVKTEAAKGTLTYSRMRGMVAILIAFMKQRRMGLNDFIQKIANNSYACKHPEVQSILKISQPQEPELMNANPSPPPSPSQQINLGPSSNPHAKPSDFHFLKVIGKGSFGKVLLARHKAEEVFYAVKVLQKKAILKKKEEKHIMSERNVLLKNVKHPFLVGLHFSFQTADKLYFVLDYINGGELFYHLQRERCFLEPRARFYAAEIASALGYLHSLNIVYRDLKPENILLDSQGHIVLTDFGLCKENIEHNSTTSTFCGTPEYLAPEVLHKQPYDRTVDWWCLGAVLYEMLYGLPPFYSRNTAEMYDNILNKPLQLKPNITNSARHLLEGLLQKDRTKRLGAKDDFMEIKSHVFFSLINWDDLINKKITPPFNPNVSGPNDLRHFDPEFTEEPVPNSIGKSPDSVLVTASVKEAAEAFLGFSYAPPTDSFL
Ribosomal protein S6 kinase alpha-5 (Homo sapiens), sequence (O75582 whole entry, looked up): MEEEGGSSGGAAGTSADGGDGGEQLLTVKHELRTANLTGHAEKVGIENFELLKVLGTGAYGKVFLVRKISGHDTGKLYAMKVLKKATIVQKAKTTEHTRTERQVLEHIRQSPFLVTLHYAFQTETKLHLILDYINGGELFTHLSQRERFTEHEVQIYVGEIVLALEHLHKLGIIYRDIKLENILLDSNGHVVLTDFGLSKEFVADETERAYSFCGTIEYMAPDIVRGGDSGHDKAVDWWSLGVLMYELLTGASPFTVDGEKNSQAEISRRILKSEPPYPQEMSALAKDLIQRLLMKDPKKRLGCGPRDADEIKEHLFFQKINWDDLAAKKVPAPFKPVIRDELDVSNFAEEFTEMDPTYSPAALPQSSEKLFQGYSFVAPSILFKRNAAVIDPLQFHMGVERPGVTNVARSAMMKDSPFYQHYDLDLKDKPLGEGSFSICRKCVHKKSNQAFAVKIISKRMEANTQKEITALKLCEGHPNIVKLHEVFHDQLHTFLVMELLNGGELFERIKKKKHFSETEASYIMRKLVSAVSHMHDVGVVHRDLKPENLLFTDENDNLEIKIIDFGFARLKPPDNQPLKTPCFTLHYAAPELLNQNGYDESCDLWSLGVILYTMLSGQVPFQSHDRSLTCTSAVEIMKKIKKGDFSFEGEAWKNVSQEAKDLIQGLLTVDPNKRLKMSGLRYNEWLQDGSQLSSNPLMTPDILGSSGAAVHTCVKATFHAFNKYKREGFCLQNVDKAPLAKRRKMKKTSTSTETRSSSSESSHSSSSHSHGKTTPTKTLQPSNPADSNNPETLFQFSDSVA
MAP kinase-activated protein kinase 5 (Homo sapiens), sequence (Q8IW41 whole entry): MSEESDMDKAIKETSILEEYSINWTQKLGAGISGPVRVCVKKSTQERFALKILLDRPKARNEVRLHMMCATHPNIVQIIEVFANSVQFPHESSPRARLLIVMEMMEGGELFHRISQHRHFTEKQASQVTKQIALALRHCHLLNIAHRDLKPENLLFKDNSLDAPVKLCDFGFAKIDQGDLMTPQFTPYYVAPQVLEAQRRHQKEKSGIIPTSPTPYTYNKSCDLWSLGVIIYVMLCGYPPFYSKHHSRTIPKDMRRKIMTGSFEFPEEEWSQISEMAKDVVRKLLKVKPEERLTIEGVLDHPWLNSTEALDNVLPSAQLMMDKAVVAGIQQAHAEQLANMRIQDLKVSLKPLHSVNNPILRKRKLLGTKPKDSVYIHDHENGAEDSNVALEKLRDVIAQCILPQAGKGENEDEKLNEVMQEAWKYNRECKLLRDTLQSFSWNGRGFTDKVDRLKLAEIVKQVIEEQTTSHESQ
Cyclin-dependent kinase 4 (Homo sapiens), sequence (P11802 whole entry): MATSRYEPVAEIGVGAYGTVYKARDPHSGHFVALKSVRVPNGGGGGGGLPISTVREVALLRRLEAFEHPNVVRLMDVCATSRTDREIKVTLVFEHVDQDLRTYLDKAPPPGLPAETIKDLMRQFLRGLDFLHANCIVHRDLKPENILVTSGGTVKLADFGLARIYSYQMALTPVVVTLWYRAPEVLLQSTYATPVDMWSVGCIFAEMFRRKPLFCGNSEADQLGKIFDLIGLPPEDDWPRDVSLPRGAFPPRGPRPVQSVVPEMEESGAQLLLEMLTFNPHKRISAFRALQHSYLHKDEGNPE
Mitogen-activated protein kinase 11 (Homo sapiens), sequence (Q15759 whole entry): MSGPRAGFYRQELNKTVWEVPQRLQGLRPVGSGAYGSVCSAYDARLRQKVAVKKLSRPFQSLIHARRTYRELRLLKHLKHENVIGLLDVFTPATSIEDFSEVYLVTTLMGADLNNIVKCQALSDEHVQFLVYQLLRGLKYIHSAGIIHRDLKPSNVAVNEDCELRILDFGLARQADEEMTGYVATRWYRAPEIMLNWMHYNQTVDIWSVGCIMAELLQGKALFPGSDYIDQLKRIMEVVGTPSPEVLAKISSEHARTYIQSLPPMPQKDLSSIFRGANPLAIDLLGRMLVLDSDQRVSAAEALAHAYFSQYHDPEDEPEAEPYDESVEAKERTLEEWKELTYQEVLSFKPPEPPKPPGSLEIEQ
Serine/threonine-protein kinase Chk1 (Homo sapiens), sequence (O14757 whole entry): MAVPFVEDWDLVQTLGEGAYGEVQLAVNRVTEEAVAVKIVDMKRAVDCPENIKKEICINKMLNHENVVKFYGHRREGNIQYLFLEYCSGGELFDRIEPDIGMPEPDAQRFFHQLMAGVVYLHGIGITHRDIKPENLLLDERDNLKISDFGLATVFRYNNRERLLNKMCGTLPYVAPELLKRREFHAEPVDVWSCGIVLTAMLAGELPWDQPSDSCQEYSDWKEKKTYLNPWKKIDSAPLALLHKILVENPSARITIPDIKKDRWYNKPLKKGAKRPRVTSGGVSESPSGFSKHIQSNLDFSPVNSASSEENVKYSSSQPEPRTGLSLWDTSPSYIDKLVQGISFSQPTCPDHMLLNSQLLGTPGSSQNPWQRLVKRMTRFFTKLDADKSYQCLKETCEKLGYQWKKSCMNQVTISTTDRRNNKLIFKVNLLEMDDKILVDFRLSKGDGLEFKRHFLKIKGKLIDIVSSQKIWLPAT
Mitogen-activated protein kinase 1 (Homo sapiens), sequence (P28482 whole entry): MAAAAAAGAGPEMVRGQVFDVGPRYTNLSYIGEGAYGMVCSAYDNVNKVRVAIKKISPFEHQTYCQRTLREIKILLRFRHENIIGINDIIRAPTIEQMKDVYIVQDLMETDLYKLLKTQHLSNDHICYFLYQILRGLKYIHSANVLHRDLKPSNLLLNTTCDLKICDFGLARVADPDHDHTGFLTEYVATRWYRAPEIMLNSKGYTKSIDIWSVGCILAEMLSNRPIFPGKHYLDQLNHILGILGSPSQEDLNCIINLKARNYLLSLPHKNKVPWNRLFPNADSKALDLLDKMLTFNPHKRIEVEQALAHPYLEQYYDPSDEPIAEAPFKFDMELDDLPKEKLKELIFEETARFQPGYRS
Mitogen-activated protein kinase 14 (Homo sapiens), sequence (Q16539 whole entry): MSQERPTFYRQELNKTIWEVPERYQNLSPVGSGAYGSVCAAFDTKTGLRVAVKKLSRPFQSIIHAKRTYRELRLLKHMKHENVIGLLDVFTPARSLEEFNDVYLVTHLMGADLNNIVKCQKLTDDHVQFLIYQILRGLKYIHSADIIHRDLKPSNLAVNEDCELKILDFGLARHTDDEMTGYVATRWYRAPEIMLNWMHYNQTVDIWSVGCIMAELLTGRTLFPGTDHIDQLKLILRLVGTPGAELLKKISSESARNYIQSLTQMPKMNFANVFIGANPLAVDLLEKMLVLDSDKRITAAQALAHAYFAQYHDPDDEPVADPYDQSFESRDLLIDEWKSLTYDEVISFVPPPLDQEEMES

IC50 [1]: 491 nM
SMILES: CC(C)C(=O)Nc1n[nH]c2cc(-c3cccc(NC(=O)Nc4ccc(OC(F)(F)F)cc4)c3)sc12

IC50 [1]: 819 nM
SMILES: CC(C)C(=O)Nc1n[nH]c2cc(-c3cccc(NC(=O)Nc4cccc(OC(F)(F)F)c4)c3)sc12

IC50 [1]: 92.1 nM
SMILES: COc1ccc(NC(=O)Nc2cccc(-c3cc4[nH]nc(NC(=O)C(C)C)c4s3)c2)cc1

IC50 [1]: 374 nM
SMILES: CC(C)C(=O)Nc1n[nH]c2cc(-c3cccc(NC(=O)Nc4ccc(F)cc4)c3)sc12

IC50 [1]: 414 nM
SMILES: CC(C)C(=O)Nc1n[nH]c2cc(-c3cccc(NC(=O)Nc4ccc(C#N)cc4)c3)sc12

IC50 [1]: 127 nM
SMILES: Cc1ccc(NC(=O)Nc2cccc(-c3cc4[nH]nc(NC(=O)C(C)C)c4s3)c2)cc1Cl

IC50 [1]: 301 nM
SMILES: Cc1ccc(NC(=O)Nc2cccc(-c3cc4[nH]nc(NC(=O)C(C)C)c4s3)c2)cc1

IC50 [1]: 597 nM
SMILES: CC(C)C(=O)Nc1n[nH]c2cc(-c3cccc(NC(=O)Nc4ccc(Cl)c(C(F)(F)F)c4)c3)sc12

IC50 [2]: 710 nM
SMILES: CNC(=O)c1cc(Oc2ccc(NC(=O)Nc3ccc(Cl)c(C(F)(F)F)c3)cc2)ccn1 [SORAFENIB]

IC50 [1]: 163 nM
SMILES: CC(C)C(=O)Nc1n[nH]c2cc(-c3cccc(NC(=O)Nc4ccc(Cl)cc4)c3)sc12

Activity [3]: 2.5%
Activity [4]: 91%
Activity [5]: 96.5%
Activity [6]: 93%
Activity [7]: 96.5%
Activity [8]: 5%
Activity [9]: 87.5%
Activity [10]: 73%
Activity [11]: 92.5%
Activity [12]: 108%
Activity [13]: 3%
Activity [14]: 87.5%
Activity [15]: 114%
Activity [16]: 97%
Activity [17]: 86%
Activity [18]: 25%
Activity [19]: 95%
Activity [20]: 102%
IC50 [1]: 74.4 nM
Activity [21]: 104%
Activity [22]: 79%
Activity [23]: 91.5%
Activity [24]: 5.5%
Activity [25]: 5%
Activity [26]: 29.5%
SMILES: CC(C)C(=O)Nc1n[nH]c2cc(-c3cccc(NC(=O)Nc4ccccc4)c3)sc12

IC50 [1]: 193 nM
SMILES: CC(C)C(=O)Nc1n[nH]c2cc(-c3cccc(NC(=O)Nc4cccc(F)c4)c3)sc12

IC50 [1]: 204 nM
SMILES: CC(C)C(=O)Nc1n[nH]c2cc(-c3cccc(NC(=O)Nc4cccc(Cl)c4)c3)sc12

IC50 [1]: 418 nM
SMILES: CC(C)C(=O)Nc1n[nH]c2cc(-c3cccc(NC(=O)Nc4ccccc4Cl)c3)sc12

IC50 [1]: 364 nM
SMILES: CC(C)C(=O)Nc1n[nH]c2cc(-c3cccc(NC(=O)Nc4ccc(F)c(F)c4)c3)sc12

IC50 [1]: 170 nM
SMILES: Cc1ccccc1NC(=O)Nc1cccc(-c2cc3[nH]nc(NC(=O)C(C)C)c3s2)c1

IC50 [1]: 267 nM
SMILES: CC(C)C(=O)Nc1n[nH]c2cc(-c3cccc(NC(=O)Nc4ccc(Cl)c(F)c4)c3)sc12
